The target in experiment [1] is T1, M1-type muscarinic cholinergic receptor (Rattus norvegicus, UniProt P08482).
T1 sequence (P08482 1-460): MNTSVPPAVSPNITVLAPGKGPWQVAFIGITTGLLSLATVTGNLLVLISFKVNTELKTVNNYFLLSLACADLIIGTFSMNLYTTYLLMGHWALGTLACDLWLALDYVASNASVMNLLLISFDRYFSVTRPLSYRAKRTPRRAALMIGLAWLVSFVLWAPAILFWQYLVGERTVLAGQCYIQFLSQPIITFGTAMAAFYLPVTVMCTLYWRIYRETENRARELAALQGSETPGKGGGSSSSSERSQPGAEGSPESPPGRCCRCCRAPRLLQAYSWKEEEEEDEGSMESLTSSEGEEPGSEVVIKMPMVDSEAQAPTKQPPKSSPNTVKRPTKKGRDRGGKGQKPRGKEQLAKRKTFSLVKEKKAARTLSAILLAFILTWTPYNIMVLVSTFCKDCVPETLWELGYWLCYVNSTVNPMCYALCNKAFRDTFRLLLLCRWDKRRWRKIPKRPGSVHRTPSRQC
Description: Test for affinity for the M1-type muscarinic cholinergic receptor: displacement of [3H]pirenzepine on rat hippocampus homogenate. It counts as binding. The conditions noted are these: for IC50: rat hippocampus homogenate, 1 nM [3H]PZ, 2 h at 4° C., pH 7.40; for r = (M2 /M1): ratio of IC50 M2 (3H-NMS, guinea-pig ileum) to IC50 M1 (3H-pirenzepine, rat hippocampus). From the text:
(§1) The M1 -type receptors are concentrated in certain areas of the brain, such as the hippocampus, the cerebral cortex and the striatum, and also in the sympathetic ganglia. These binding sites can be selectively labeled with [^3 H]pirenzepine ([^3 H]PZ). The M2 -type receptors predominate in the heart and ileum and can be labeled with [^3 H]N-methylscopolamine ([^3 H]NMS). To determine the selectivity of our molecules towards the M1 and M2 sites, we studied their interaction in vitro with [^3 H]PZ and [^3 H]NMS bound with a high affinity to membranes of rat hippocampus and membranes of smooth muscle of guinea-pig ileum, respectively.
The interaction of the molecules with M1 -type muscarinic receptors was studied by in vitro measurement, on a homogenate of rat hippocampus, of the displacement of tritiated pirenzepine ([^3 H]PZ) from its specific binding sites. Aliquots (10 μl) of a 5% (w/v) homogenate of rat hippocampus in an Na2 HPO4 buffer (50 mM, pH 7.40) are incubated for 2 h at 4° C. in the presence of [^3 H]pZ ([…]; final concentration: 1 nM) and increasing concentrations of products to be studied. The final volume is 2 ml. The reaction is stopped by centrifugation for 10 min at 50,000 × g. After decantation and washing of the residues, the bound radioactivity is counted by liquid scintillation. The non-specific binding is determined in the presence of 10 μmol/l of atropine sulfate. The 50% inhibitory concentration (IC50) is determined graphically (Ref.: Watson J. D., Roeskoe W. R. and Yamamura H.1., Life Sci., 31, 2019-2029, 1982).
(§2) Table 4 indicates the affinities of the products of the invention for M1 and M2 receptors. The results are expressed as 50% inhibitory concentrations (IC50), i.e. the concentration (in μM) which causes a 50% displacement placement of the tritiated ligand bound to the membrane receptors. The IC50 for displacement of ^3 H-pirenzepine represents the affinity for the M1 receptor; the IC50 for displacement of 3H-NMS represents the affinity for the M2 receptor.

Experiment [2] deals with T2, M2-type muscarinic cholinergic receptor (Cavia porcellus, UniProt H0VRN8).
T2 construct: on a homogenate of smooth muscle of guinea-pig ileum; from tissue; host or cells: guinea-pig ileum smooth muscle homogenate
T2 sequence (H0VRN8 1-466): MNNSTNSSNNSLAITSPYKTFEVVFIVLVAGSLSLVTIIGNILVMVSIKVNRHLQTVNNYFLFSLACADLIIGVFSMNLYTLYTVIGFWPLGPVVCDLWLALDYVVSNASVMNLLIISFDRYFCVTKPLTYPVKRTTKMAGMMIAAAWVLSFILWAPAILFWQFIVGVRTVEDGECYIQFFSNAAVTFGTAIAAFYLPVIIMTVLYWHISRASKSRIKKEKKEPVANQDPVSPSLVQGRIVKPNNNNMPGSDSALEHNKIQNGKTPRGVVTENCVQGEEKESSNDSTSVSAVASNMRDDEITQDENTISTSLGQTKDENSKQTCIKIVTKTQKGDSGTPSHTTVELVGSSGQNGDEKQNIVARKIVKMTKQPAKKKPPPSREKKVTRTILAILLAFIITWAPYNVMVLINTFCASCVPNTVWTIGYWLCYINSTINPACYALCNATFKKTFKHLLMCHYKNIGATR
Description: Test for affinity for the M2-type muscarinic cholinergic receptor: displacement of [3H]N-methylscopolamine on smooth muscle of guinea-pig ileum. It counts as binding. Particulars: guinea-pig ileum smooth muscle homogenate, 0.3 nM [3H]NMS, 20 min at 30° C., pH 7.5.
Excerpt: as §1
The interaction with M2 -type muscarinic receptors was studied by in vitro measurement, on a homogenate of smooth muscle of guinea-pig ileum, of the displacement of tritiated N-methylscopolamine ([^3 H]NMS) from its specific binding sites. Aliquots (50 μl) of a 0.625% (w/v) homogenate of smooth muscle of guinea-pig ileum in MEPES buffer (20 mM) containing NaCl (100 mM) and MgCl2 (10 mM) (final pH: 7.5) are incubated for 20 min at 30° C. in the presence of [^3 H]NMS ([…]; final concentration: 0.3 nM) and increasing concentrations of products to be tested. The final volume is 1 ml. The reaction is stopped by centrifugation for 5 min at 15,000 × g. The non-specific binding is determined in the presence of 10 μmol/l of atropine sulfate (Ref.: Hammer R., Berrie C. P., Birdsall N. I. M., Burgen A. S. V. and Hulme E. C., Nature, 283, 90-92, 1980; Hulme E. C., Birdsall N.1.M., Burgen A. S. V. and Mettha P., Mol. pharmacol., 14, 737-750, 1978).
as §2

Experiment [3] has as its target T3, M1 central muscarinic cholinergic receptors (Mus musculus, UniProt P12657).
T3 construct: The intrastriatal injection of PZ into mice induces rotational behavior; from tissue; host or cells: right striatum of living female mice (Swiss, CD 1)
T3 sequence (P12657 1-460): T1 sequence (P08482 1-460) with S309P
The experiment in a line: Antagonism of rotational behavior induced by intrastriatal injection of pirenzepine in mice. It counts as in vivo, mice (female, Swiss, CD 1). Particulars: ip, read-out: Pirenzepine antagonism ED50. The method, then:
Pirenzepine (PZ) is a specific antagonist of M1 central muscarinic cholinergic receptors. The intrastriatal injection of PZ into mice induces rotational behavior. The antagonism of this behavior by the products according to the invention was studied.
The products according to the invention are injected intraperitoneally (i.p.) after solubilization in distilled water or suspension in a 5% solution of gum arabic. The control animals receive an injection of the pure solvent under the same conditions.
The animals used are female mice (Swiss, CD 1, Charles River, France) with a body weight of between 25 and 30 grams.
Pirenzepine is dissolved in a phosphate buffer; the pH of the solution is 6.
The products to be studied or their solvents are injected intraperitoneally, in a volume of 0.4 ml per 20 g of body weight, 15 minutes before a direct injection of pirenzepine at a dose of […] into the right striatum of the mouse, according to the method described by p.
The number of contralateral rotations (rotations in the opposite direction to the side injected) was counted for three 2-minute periods after the injection of pirenzepine: minutes 2 to 4, 8 to 10 and 13 to 15. Each treatment includes 3 to 4 doses and 10 animals per dose. For each treatment, the total number of rotations and the percentage antagonism compared with the control group are calculated.

Setting [4] is: mice, i.p. 15 minutes before intrastriatal pirenzepine, 50% reduction in number of rotations.

Changes are numbered by the printed parent chain. Counter-ions that a name gives are not always drawn. Like-named read-outs stand apart in the source and are kept apart here.

The term IC50 denotes the concentration at which inhibition is half-maximal. Higher therefore signals weaker potency in that assay. Broadly, the ED50 is the dose that gives a 50% effect, or the effect in half of the subjects.

As to `CCN(CC)CCNc1cc2c(nn1)-c1cc(Cl)ccc1CCC2.Cl.Cl` [SR 95878 A, 10-Chloro-3-(2-diethylaminoethylamino)-6,7-dihydro-5H-benzocyclohepta[5,6-c]pyridazine dihydrochloride], the IC50 in experiment [1] is 40 nM; in experiment [2], 1100 nM. Besides, the “r = (M2 /M1)” value in experiment [1] was 26. For the same molecule, the ED50 in experiment [3] turned out to be 2 mg/kg.
`CCN1CCCC1CNc1cc2c(nn1)-c1ccccc1CCC2` (stereo not drawn) [SR 95879 A, 3-[(1-Ethylpyrrolidin-2-yl)methylamino]-6,7-dihydro-5H-benzocyclohepta-5,6-c]pyridazine dihydrochloride]: in experiment [1], the IC50 was determined as 140 nM and the “r = (M2 /M1)” value is 7. Besides, the IC50 in experiment [2] stood at 1000 nM. The 50% effective dose (ED50) in experiment [3] (setting [4]) was found to be 0.3 mg/kg.
The corresponding values for `c1ccc2c(c1)CCCc1cc(NCCN3CCCC3)nnc1-2` [SR 95883 A] are 130 nM, 35, 4500 nM and 3 mg/kg.
For the molecule `CCN(CC)CCNc1cc2c(nn1)-c1ccccc1CC2.Cl.Cl` [SR 96054 A, 3-(2-Diethylaminoethylamino)-5,6-dihydrobenzo[h]cinnoline dihydrochloride], the IC50 came to 210 nM in experiment [1] and 7500 nM in experiment [2]. Besides, the “r = (M2 /M1)” value in experiment [1] is recorded as 36. Further, the ED50 in experiment [3] was 3 mg/kg.
Regarding `CCN(CC)CCNc1cc2ccc3ccccc3c2nn1.Cl.Cl` [SR 96055 A, 3-(2-Diethylaminoethylamino)benzo[h]cinnoline dihydrochloride], in experiment [1], the IC50 was determined as 320 nM and the “r = (M2 /M1)” value was determined as 53. In addition, in experiment [2], the IC50 stood at 17000 nM. In experiment [3], the ED50 was 3 mg/kg.
Take `CN1CCC(Nc2cc3c(nn2)-c2ccccc2CCC3)CC1` [SR 96093 A, 3-(1-Methylpiperidin-4-yl)amino]-6,7-dihydro-5H-benzocyclohepta[5,6-c]pyridazine dihydrochloride]: in experiment [1], the IC50 came to 1200 nM and the “r = (M2 /M1)” value was 42. In experiment [2], the IC50 is 50000 nM. The ED50 in experiment [3] (setting [4]) was determined as 15 mg/kg.

The record behind these values is patent US4977152A, “Novel tricyclic derivatives which are agonists of cholinergic receptors, and drugs in which they are present” (Societe Anonyme: Sanofi, priority 1986, dated 1990).
